Experimental findings from patent publication US6015823A, “4-Cyclohexylphenyl-oxazolines and their use for controlling animal pests” (Bayer Aktiengesellschaft, priority 1996, dated 2000) are described below.

Where two headings read alike, the source gives them in different places.

The nature of data set [1]: logp: n-octanol/water partition coefficient by reversed phase HPLC. The settings on record: h2o/ch3cn, read-out: logp (logarithm to base ten of the n-octanol/water partition coefficient). The class given is physicochemical. From the text:
*) logp: Logarithm to base ten of the n-octanol/water partition coefficient, determined by reversed phase HPLC analysis using H2 O/CH3 CN.
*^) logp: Logarithm to base ten of the noctanol/water partition
coefficient, determined by reversed phase HPLC analysis using H2

The test system of data set [2] is common spider mite (Tetranychus urticae). The data set can be described thus: Tetranychus test (OP resistant/dip treatment). The settings on record: Tetranychus urticae, 312 h, read-out: destruction in %. Format: in vivo. The protocol: Tetranychus test (OP resistant/dip treatment)
Solvent: 3 parts by weight of dimethylformamide
(§1) Emulsifier: 1 part by weight of alkylaryl polyglycol ether
To produce a suitable preparation of active compound, 1 part by weight of active compound is mixed with the stated amount of solvent and the stated amount of emulsifier, and the concentrate is diluted with emulsifier-containing water to the desired concentrations.
Bean plants (Phaseolus vulgaris) which are heavily infested by all stages of the common spider mite (Tetranychus urticae) are dipped into the active compound preparation of the desired concentration.
After the desired period of time, the activity in % is determined. 100% means that all the spider mites have been killed; 0% means that none of the spider mites have been killed.

Data set [3] relates to mustard beetle larvae (Phaedon cochleariae). Nature of the data set: Phaedon larvae test. The class given is in vivo. The settings on record: Phaedon cochleariae, 168 h; active compound concentration 0.01%, after 7 days; read-out: destruction in %. The protocol: Solvent: 7 parts by weight of dimethylformamide
as §1
To produce a suitable preparation of active compound, I part by weight of active compound is mixed with the stated amount of solvent and the stated amount of emulsifier, and the concentrate is diluted with water to the desired concentration.
Cabbage leaves (Brassica oleracea) are treated by being dipped into the active compound preparation of the desired concentration and are infested with mustard beetle larvae (Phaedon cochleariae), while the leaves are still moist.
After the desired period of time, the destruction in % is determined. 100% means that all the beetle larvae have been killed; 0% means that none of the beetle larvae have been killed.

Setting [4] is: A isomer (possible geometric isomer).
[5] abbreviates: B isomer (possible geometric isomer).

For `OC1CCC(c2ccc(C3COC(c4c(F)cccc4F)=N3)cc2)CC1` (single isomer, unassigned) [Example 2, 2-(2,6-difluorophenyl)-4-[4-(4-hydroxycyclohexyl)phenyl]-1,3-oxazoline], in data set [1], the chromatographic logP stood at 2.53.

`O=C1CCC(c2ccc(C(CCl)NC(=O)c3c(F)cccc3F)cc2)CC1` (stereo not drawn) [2-(2,6-difluorobenzoylamido)-2-[4-(4-oxo-cyclohexyl)phenyl]-chloroethane]: in data set [1], the chromatographic logP was determined as 2.54.

On to `CCCOc1ccc(-c2ccc(C3COC(c4c(F)cccc4F)=N3)cc2)cc1` (stereo not drawn) [(F), reference compound], for which the mortality at 0.0001 % in data set [2] was determined as 45%.

For `ON=C1CCC(c2ccc(C3COC(c4c(F)cccc4F)=N3)cc2)CC1` (stereo not drawn) [Example 3, 2-(2,6-difluorophenyl)-4-[4-(4-oximino-cyclohexyl)phenyl]-1,3-oxazoline], the chromatographic logP in data set [1] amounted to 2.57.

Turning to `OC1CCC(c2ccc(C3COC(c4c(F)cccc4F)=N3)cc2)CC1` (stereo not drawn) [Example 7], the chromatographic logP in data set [1] is 2.74.

For the molecule `COC1(OC)CCC(c2ccc(C3COC(c4c(F)cccc4F)=N3)cc2)CC1` (stereo not drawn) [Example 8], the chromatographic logP in data set [1] was 3.8. In data set [3], the mortality at 0.01 % was 90%.

Regarding `Fc1cccc(F)c1C1=NC(c2ccc(C3CCC4(CC3)OCCO4)cc2)CO1` (stereo not drawn) [Example 11], the chromatographic logP in data set [1] was 3.46.

In the case of `Fc1cccc(F)c1C1=NC(c2ccc(C3CCC(=NOCc4ccccc4)CC3)cc2)CO1` (stereo not drawn) [Example 12], the chromatographic logP in data set [1] amounted to 4.7. In data set [2], the mortality at 0.0001 % came to 98%.

With `CCCCCCCCCCCCCCCC1COC2(CCC(c3ccc(C4COC(c5c(F)cccc5F)=N4)cc3)CC2)O1` (stereo not drawn) [Example 18], in data set [1], the chromatographic logP worked out at 9.

In the case of `Fc1cccc(F)c1C1=NC(c2ccc(C3CCC(=NOCc4ccc(C(F)(F)F)cc4Cl)CC3)cc2)CO1` (stereo not drawn) [Example 20], the chromatographic logP in data set [1] stood at 5.91. Besides, the mortality at 0.01 % in data set [3] was found to be 100%. The mortality at 0.0001 % in data set [2] is 98%.

On to `Fc1cccc(F)c1C1=NC(c2ccc(C3CCC(=NOCc4ccccc4Cl)CC3)cc2)CO1` (stereo not drawn) [Example 22], for which the chromatographic logP in data set [1] was determined as 5.21. In addition, the mortality at 0.0001 % in data set [2] came to 98%.

As to `CC(C)(C)c1ccc(C2COC3(CCC(c4ccc(C5COC(c6c(F)cccc6F)=N5)cc4)CC3)O2)cc1` (stereo not drawn) [Example 23], in data set [1], the chromatographic logP was determined as 6.16. Further, in data set [2], the mortality at 0.0001 % came to 98%.

Turning to `Fc1cccc(F)c1C1=NC(c2ccc(C3CCC4(CC3)OCC(c3ccccc3Cl)O4)cc2)CO1` (stereo not drawn) [Example 24], in data set [1], the chromatographic logP came to 5.6. In data set [2], the mortality at 0.0001 % was determined as 98%.

In the case of `Fc1cccc(F)c1C1=NC(c2ccc(C3CCC4(CC3)OCC(c3cccc(Cl)c3Cl)O4)cc2)CO1` (stereo not drawn) [Example 25], the chromatographic logP in data set [1] came to 6.07. Further, the mortality at 0.0001 % in data set [2] came to 98%.

On to `CC1CC(C)(C)OC2(CCC(c3ccc(C4COC(c5c(F)cccc5F)=N4)cc3)CC2)O1` (stereo not drawn) [Example 26], for which the chromatographic logP in data set [1] (setting [4]) came to 5.12; in data set [1] (setting [5]) it was 5.19.

In the case of `CCC1COC2(CCC(c3ccc(C4COC(c5c(F)cccc5F)=N4)cc3)CC2)O1` (stereo not drawn) [Example 27], the chromatographic logP in data set [1] turned out to be 4.43.

`CCCC1COC2(CCC(c3ccc(C4COC(c5c(F)cccc5F)=N4)cc3)CC2)O1` (stereo not drawn) [Example 28]: the chromatographic logP in data set [1] stood at 4.52.

Take `CC1CCOC2(CCC(c3ccc(C4COC(c5c(F)cccc5F)=N4)cc3)CC2)O1` (stereo not drawn) [Example 29]: the chromatographic logP in data set [1] (setting [4]) was found to be 3.95; in data set [1] (setting [5]), 3.98.

Regarding `CCCCC1COC2(CCC(c3ccc(C4COC(c5c(F)cccc5F)=N4)cc3)CC2)O1` (stereo not drawn) [Example 30], the chromatographic logP in data set [1] (setting [4]) was found to be 5.35; in data set [1] (setting [5]), 5.4.

Turning to `CC1CC(C)OC2(CCC(c3ccc(C4COC(c5c(F)cccc5F)=N4)cc3)CC2)O1` (stereo not drawn) [Example 31], the chromatographic logP in data set [1] (setting [4]) is 4.52; in data set [1] (setting [5]), 4.84.

Take `Fc1cccc(F)c1C1=NC(c2ccc(C3CCC4(CC3)OCCCO4)cc2)CO1` (stereo not drawn) [Example 32]: in data set [1], the chromatographic logP came out at 3.47.

Consider `CC1(C)COC2(CCC(c3ccc(C4COC(c5c(F)cccc5F)=N4)cc3)CC2)OC1` (stereo not drawn) [Example 33], for which, in data set [1], the chromatographic logP came out at 4.5.

Consider `CCCCCCCCC1COC2(CCC(c3ccc(C4COC(c5c(F)cccc5F)=N4)cc3)CC2)O1` (stereo not drawn) [Example 34], for which the chromatographic logP is 7.19 in data set [1] (setting [4]) and 7.28 in data set [1] (setting [5]).

On to `CCCCON=C1CCC(c2ccc(C3COC(c4c(F)cccc4F)=N3)cc2)CC1` (stereo not drawn) [Example 36], for which, in data set [1], the chromatographic logP turned out to be 4.95.

For `CCCC1(C)COC2(CCC(c3ccc(C4COC(c5c(F)cccc5F)=N4)cc3)CC2)OC1` (stereo not drawn) [Example 37], the chromatographic logP in data set [1] is 5.46.

As for `CCC1(CC)COC2(CCC(c3ccc(C4COC(c5c(F)cccc5F)=N4)cc3)CC2)OC1` (stereo not drawn) [Example 38], in data set [1], the chromatographic logP was determined as 5.4.

As for `Fc1cccc(F)c1C1=NC(c2ccc(C3CCC4(CC3)OCC(c3ccc(Br)cc3)O4)cc2)CO1` (stereo not drawn) [Example 39], the values for the chromatographic logP in data set [1] (setting [4]) and in data set [1] (setting [5]) were 5.36 and 5.51, respectively.

For the molecule `CC1(c2ccccc2)COC2(CCC(c3ccc(C4COC(c5c(F)cccc5F)=N4)cc3)CC2)OC1` (stereo not drawn) [Example 40], in data set [1], the chromatographic logP came out at 5.11.

`Fc1cccc(F)c1C1=NC(c2ccc(C3CCC4(CC3)OCC(COc3ccccc3)O4)cc2)CO1` (stereo not drawn) [Example 41]: the values for the chromatographic logP in data set [1] (setting [4]) and in data set [1] (setting [5]) were 4.73 and 4.75, respectively.

Consider `Cc1cc(C)cc(OCC2COC3(CCC(c4ccc(C5COC(c6c(F)cccc6F)=N5)cc4)CC3)O2)c1` (stereo not drawn) [Example 42], for which the figures for the chromatographic logP in data set [1] (setting [4]) and in data set [1] (setting [5]) were 5.44 and 5.48, respectively.

Turning to `Fc1cccc(F)c1C1=NC(c2ccc(C3CCC4(CC3)OCC(c3c(F)cccc3F)O4)cc2)CO1` (stereo not drawn) [Example 43], the chromatographic logP in data set [1] (setting [4]) came out at 4.77; in data set [1] (setting [5]) it was 4.86.

On to `COc1ccc(C2COC3(CCC(c4ccc(C5COC(c6c(F)cccc6F)=N5)cc4)CC3)OC2)cc1` (stereo not drawn) [Example 44], for which the chromatographic logP in data set [1] was found to be 4.61.

On to `Fc1cccc(F)c1C1=NC(c2ccc(C3CCC4(CC3)OCC(Br)(c3ccc(Cl)cc3)O4)cc2)CO1` (stereo not drawn) [Example 45], for which the chromatographic logP is 5.96 in data set [1] (setting [4]) and 6.2 in data set [1] (setting [5]).

Regarding `Fc1cccc(F)c1C1=NC(c2ccc(C3CCC4(CC3)OCC(COc3ccc(Cl)cc3)O4)cc2)CO1` (stereo not drawn) [Example 46], the results for the chromatographic logP in data set [1] (setting [4]) and in data set [1] (setting [5]) were 5.1 and 5.16, respectively.

For the molecule `CC(C)C1(c2ccc(Cl)cc2)COC2(CCC(c3ccc(C4COC(c5c(F)cccc5F)=N4)cc3)CC2)OC1` (stereo not drawn) [Example 47], the chromatographic logP in data set [1] came to 6.15.

On to `C=CCOCC1COC2(CCC(c3ccc(C4COC(c5c(F)cccc5F)=N4)cc3)CC2)O1` (stereo not drawn) [Example 48], for which the chromatographic logP in data set [1] was found to be 4.21.

For `COCC1COC2(CCC(c3ccc(C4COC(c5c(F)cccc5F)=N4)cc3)CC2)O1` (stereo not drawn) [Example 49], the chromatographic logP in data set [1] (setting [4]) was determined as 3.57; in data set [1] (setting [5]), 3.6.

Turning to `CC1COC2(CCC(c3ccc(C4COC(c5c(F)cccc5F)=N4)cc3)CC2)O1` (stereo not drawn) [Example 50], the chromatographic logP in data set [1] was 3.89.

Consider `CCCCOCC1COC2(CCC(c3ccc(C4COC(c5c(F)cccc5F)=N4)cc3)CC2)O1` (stereo not drawn) [Example 51], for which the values for the chromatographic logP in data set [1] (setting [4]) and in data set [1] (setting [5]) were 4.97 and 5, respectively.

`CC1COC2(CCC(c3ccc(C4COC(c5c(F)cccc5F)=N4)cc3)CC2)OC1` (stereo not drawn) [Example 52]: the chromatographic logP in data set [1] was determined as 3.99.

Regarding `CC=CC1OC2(CCC(c3ccc(C4COC(c5c(F)cccc5F)=N4)cc3)CC2)OC1C=CC` (stereo not drawn) [Example 53], the chromatographic logP in data set [1] (setting [4]) amounted to 5.23; in data set [1] (setting [5]) it was 5.37.

On to `C=CCCCCC1COC2(CCC(c3ccc(C4COC(c5c(F)cccc5F)=N4)cc3)CC2)O1` (stereo not drawn) [Example 54], for which the chromatographic logP was 5.65 in data set [1] (setting [4]) and 5.7 in data set [1] (setting [5]).

In the case of `C=CCON=C1CCC(c2ccc(C3COC(c4c(F)cccc4F)=N3)cc2)CC1` (stereo not drawn) [Example 55], the chromatographic logP in data set [1] was 4.16.

For the molecule `CON=C1CCC(c2ccc(C3COC(c4c(F)cccc4F)=N3)cc2)CC1` (stereo not drawn) [Example 56], the chromatographic logP in data set [1] was 3.6.

Turning to `O=C1CCC(c2ccc(C3COC(c4c(F)cccc4Cl)=N3)cc2)CC1` (stereo not drawn) [Example 57], the chromatographic logP in data set [1] turned out to be 3.09.

Turning to `Fc1cccc(F)c1C1=NC(c2ccc(C3CCC4(CC3)OCC(c3ccccc3)O4)cc2)CO1` (stereo not drawn) [Example 58], the chromatographic logP is 4.78 in data set [1] (setting [4]) and 4.87 in data set [1] (setting [5]).

With `Fc1cccc(F)c1C1=NC(c2ccc(C3CCC4(CC3)OCC(c3c(F)cccc3Cl)O4)cc2)CO1` (stereo not drawn) [Example 59], the chromatographic logP in data set [1] stood at 5.14.

In the case of `Fc1cccc(F)c1C1=NC(c2ccc(C3CCC4(CC3)OCC(c3ccc(Cl)c(Cl)c3)O4)cc2)CO1` (stereo not drawn) [Example 60], the chromatographic logP in data set [1] turned out to be 5.65.
